From US20230143604A1, “QW DOSING OF GIP RECEPTOR AGONIST PEPTIDE COMPOUNDS AND USES THEREOF” (TAKEDA PHARMACEUTICAL COMPANY LIMITED, priority 2020, published 2023) come the findings set out here.

Starred links: 1 amine or outer side, 2 acyl side, 3 side chain; linkers in the order of their positions; H or OH if unused. Non-standard residues stand in square brackets, D forms with d. Residues, ends and D or L forms follow the SMILES beside them. Groups on a side chain read outwards from the residue. *: point of attachment. C18 diacid = O=C(O)CCCCCCCCCCCCCCCCC(=O)*; C17 diacid = O=C(O)CCCCCCCCCCCCCCCC(=O)*; γGlu = O=C(O)[C@H](CCC(=O)[*:2])N[*:1]; NMeY = CN[C@@H](Cc1ccc(O)cc1)C(=O)O; AEEA = NCCOCCOCC(=O)O; Aib = CC(C)(N)C(=O)O

The data set in a line: physchem. An outline of the steps:
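Solubility at pH 7.4 determined by stepwise addition of 200 mM phosphate buffer in 100 μL increments to 3 mg peptide, mixing briefly each time, until no insoluble material remained, then measured by liquid chromatography.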

A word on the solubility: it is how much of the substance goes into solution per volume. In the case of `CC[C@H](C)[C@H](NC(=O)[C@H](CO)NC(=O)[C@H](Cc1ccc(O)cc1)NC(=O)[C@H](CC(=O)O)NC(=O)[C@H](CO)NC(=O)[C@@H](NC(=O)[C@H](Cc1ccccc1)NC(=O)[C@@H](NC(=O)CNC(=O)[C@H](CCC(=O)O)NC(=O)C(C)(C)NC(=O)[C@H](Cc1ccc(O)cc1)NC)[C@@H](C)O)[C@@H](C)CC)C(=O)N[C@@H](C)C(=O)N[C@@H](CC(C)C)C(=O)N[C@@H](CC(=O)O)C(=O)N[C@@H](CCCCN)C(=O)N[C@@H](C)C(=O)N[C@@H](C)C(=O)N[C@@H](CCC(N)=O)C(=O)NC(C)(C)C(=O)N[C@@H](CCCCNC(=O)COCCOCCNC(=O)COCCOCCNC(=O)CC[C@H](NC(=O)CC[C@H](NC(=O)CCCCCCCCCCCCCCCCC(=O)O)C(=O)O)C(=O)O)C(=O)N[C@@H](Cc1ccccc1)C(=O)N[C@H](C(=O)N[C@@H](CCC(=O)O)C(=O)N[C@@H](Cc1c[nH]c2ccccc12)C(=O)N[C@@H](CC(C)C)C(=O)N[C@@H](CC(C)C)C(=O)N[C@@H](C)C(=O)N[C@@H](CCC(N)=O)C(=O)N[C@@H](CCCNC(=N)N)C(=O)NCC(=O)O)C(C)C` [Compound 174] (H-[NMeY][Aib]EGTFISDYSIALDKAAQ[Aib]K([AEEA-AEEA-γGlu-γGlu-C18 diacid])FVEWLLAQRG-OH), the solubility was no less than 15 mg/mL (pH 7.4) and no less than 30 mg/mL (pH 7.4, aqueous buffer).

`CC[C@H](C)[C@H](NC(=O)[C@H](CO)NC(=O)[C@H](Cc1ccc(O)cc1)NC(=O)[C@H](CC(=O)O)NC(=O)[C@H](CO)NC(=O)[C@@H](NC(=O)[C@H](Cc1ccccc1)NC(=O)[C@@H](NC(=O)CNC(=O)[C@H](CCC(=O)O)NC(=O)C(C)(C)NC(=O)[C@H](Cc1ccc(O)cc1)NC)[C@@H](C)O)[C@@H](C)CC)C(=O)N[C@@H](C)C(=O)N[C@@H](CC(C)C)C(=O)N[C@@H](CC(=O)O)C(=O)N[C@@H](CCCNC(=N)N)C(=O)NC(C)(C)C(=O)N[C@@H](CCCCNC(=O)COCCOCCNC(=O)COCCOCCNC(=O)CC[C@H](NC(=O)CC[C@H](NC(=O)CCCCCCCCCCCCCCCCC(=O)O)C(=O)O)C(=O)O)C(=O)N[C@@H](CCC(N)=O)C(=O)NC(C)(C)C(=O)N[C@@H](CC(=O)O)C(=O)N[C@@H](Cc1ccccc1)C(=O)N[C@H](C(=O)N[C@@H](CC(N)=O)C(=O)N[C@@H](Cc1c[nH]c2ccccc12)C(=O)N[C@@H](CC(C)C)C(=O)N[C@@H](CC(C)C)C(=O)N[C@@H](C)C(=O)N[C@@H](CCC(N)=O)C(=O)N[C@@H](CCCNC(=N)N)C(=O)NCC(=O)O)C(C)C` [Compound 49] (H-[NMeY][Aib]EGTFISDYSIALDR[Aib]K([AEEA-AEEA-γGlu-γGlu-C18 diacid])Q[Aib]DFVNWLLAQRG-OH): the solubility is no less than 15 mg/mL (pH 7.4) and no less than 30 mg/mL (pH 7.4, aqueous buffer).

In the case of `CC[C@H](C)[C@H](NC(=O)[C@H](CO)NC(=O)[C@H](Cc1ccc(O)cc1)NC(=O)[C@H](CC(=O)O)NC(=O)[C@H](CO)NC(=O)[C@@H](NC(=O)[C@H](Cc1ccccc1)NC(=O)[C@@H](NC(=O)CNC(=O)[C@H](CCC(=O)O)NC(=O)C(C)(C)NC(=O)[C@H](Cc1ccc(O)cc1)NC)[C@@H](C)O)[C@@H](C)CC)C(=O)N[C@@H](C)C(=O)N[C@@H](CC(C)C)C(=O)N[C@@H](CC(=O)O)C(=O)N[C@@H](CCCNC(=N)N)C(=O)NC(C)(C)C(=O)N[C@@H](C)C(=O)N[C@@H](CCC(N)=O)C(=O)NC(C)(C)C(=O)N[C@@H](CCCCNC(=O)COCCOCCNC(=O)COCCOCCNC(=O)CC[C@H](NC(=O)CC[C@H](NC(=O)CCCCCCCCCCCCCCCC(=O)O)C(=O)O)C(=O)O)C(=O)N[C@@H](Cc1ccccc1)C(=O)N[C@H](C(=O)N[C@@H](CC(N)=O)C(=O)N[C@@H](Cc1c[nH]c2ccccc12)C(=O)N[C@@H](CC(C)C)C(=O)N[C@@H](CC(C)C)C(=O)N[C@@H](C)C(=O)N[C@@H](CCC(N)=O)C(=O)N[C@@H](CCCNC(=N)N)C(=O)NCC(=O)NCC(=O)NCC(=O)NCC(=O)N[C@@H](CO)C(N)=O)C(C)C` [Compound 30] (H-[NMeY][Aib]EGTFISDYSIALDR[Aib]AQ[Aib]K([AEEA-AEEA-γGlu-γGlu-C17 diacid])FVNWLLAQRGGGGS-NH2), the solubility runs as follows: (pH 7.4) no less than 15 mg/mL; (pH 7.4, aqueous buffer) no less than 30 mg/mL.

`CC[C@H](C)[C@H](NC(=O)[C@H](CO)NC(=O)[C@H](Cc1ccc(O)cc1)NC(=O)[C@H](CC(=O)O)NC(=O)[C@H](CO)NC(=O)[C@@H](NC(=O)[C@H](Cc1ccccc1)NC(=O)[C@@H](NC(=O)CNC(=O)[C@H](CCC(=O)O)NC(=O)C(C)(C)NC(=O)[C@H](Cc1ccc(O)cc1)NC)[C@@H](C)O)[C@@H](C)CC)C(=O)N[C@@H](C)C(=O)N[C@@H](CC(C)C)C(=O)N[C@@H](CC(=O)O)C(=O)N[C@@H](CCCNC(=N)N)C(=O)N[C@H](C(=O)N[C@@H](Cc1c[nH]cn1)C(=O)N[C@@H](CCC(N)=O)C(=O)NC(C)(C)C(=O)N[C@@H](CC(N)=O)C(=O)N[C@@H](Cc1ccccc1)C(=O)N[C@H](C(=O)N[C@@H](CC(N)=O)C(=O)N[C@@H](Cc1c[nH]c2ccccc12)C(=O)N[C@@H](CC(C)C)C(=O)N[C@@H](CC(C)C)C(=O)N[C@@H](C)C(=O)N[C@@H](CCC(N)=O)C(=O)N[C@@H](CCCCNC(=O)COCCOCCNC(=O)COCCOCCNC(=O)CC[C@H](NC(=O)CCCCCCCCCCCCCCCCC(=O)O)C(=O)O)C(=O)O)C(C)C)[C@@H](C)CC` [Compound 248] (H-[NMeY][Aib]EGTFISDYSIALDRIHQ[Aib]NFVNWLLAQK([AEEA-AEEA-γGlu-C18 diacid])-OH; C-terminus assumed): the solubility (pH 7.4, aqueous buffer) is no less than 6.8 mg/mL.

For the setting “pH 7.4, aqueous buffer”, `CC[C@H](C)[C@H](NC(=O)[C@H](CO)NC(=O)[C@H](Cc1ccc(O)cc1)NC(=O)[C@H](CC(=O)O)NC(=O)[C@H](CO)NC(=O)[C@@H](NC(=O)[C@H](Cc1ccccc1)NC(=O)[C@@H](NC(=O)CNC(=O)[C@H](CCC(=O)O)NC(=O)[C@@H](C)NC(=O)[C@H](Cc1ccc(O)cc1)NC)[C@@H](C)O)[C@@H](C)CC)C(=O)N[C@@H](C)C(=O)N[C@@H](CC(C)C)C(=O)N[C@@H](CC(=O)O)C(=O)N[C@@H](CCCNC(=N)N)C(=O)N[C@H](C(=O)N[C@@H](Cc1c[nH]cn1)C(=O)N[C@@H](CCC(N)=O)C(=O)N[C@@H](CCC(N)=O)C(=O)N[C@@H](CC(N)=O)C(=O)N[C@@H](Cc1ccccc1)C(=O)N[C@H](C(=O)N[C@@H](CC(N)=O)C(=O)N[C@@H](Cc1c[nH]c2ccccc12)C(=O)N[C@@H](CC(C)C)C(=O)N[C@@H](CC(C)C)C(=O)N[C@@H](C)C(=O)N[C@@H](CCC(N)=O)C(=O)N[C@@H](CCCCNC(=O)COCCOCCNC(=O)COCCOCCNC(=O)CC[C@H](NC(=O)CCCCCCCCCCCCCCCCC(=O)O)C(=O)O)C(=O)O)C(C)C)[C@@H](C)CC` [Compound 243] (H-[NMeY][dA]EGTFISDYSIALDRIHQQNFVNWLLAQK([AEEA-AEEA-γGlu-C18 diacid])-OH; N-terminus and C-terminus assumed) showed a solubility of no less than 7 mg/mL.

With `CC[C@H](C)[C@H](NC(=O)[C@H](CO)NC(=O)[C@H](Cc1ccc(O)cc1)NC(=O)[C@H](CC(=O)O)NC(=O)[C@H](CO)NC(=O)[C@@H](NC(=O)[C@H](Cc1ccccc1)NC(=O)[C@@H](NC(=O)CNC(=O)[C@H](CCC(=O)O)NC(=O)C(C)(C)NC(=O)[C@@H](N)Cc1ccc(O)cc1)[C@@H](C)O)[C@@H](C)CC)C(=O)N[C@@H](C)C(=O)N[C@@H](CC(C)C)C(=O)N[C@@H](CC(=O)O)C(=O)N[C@@H](CCCCN)C(=O)NC(C)(C)C(=O)N[C@@H](C)C(=O)N[C@@H](CCC(N)=O)C(=O)N[C@@H](CCC(N)=O)C(=O)N[C@@H](CCCCNC(=O)COCCOCCNC(=O)COCCOCCNC(=O)CC[C@H](NC(=O)CC[C@H](NC(=O)CCCCCCCCCCCCCCCC(=O)O)C(=O)O)C(=O)O)C(=O)N[C@@H](Cc1ccccc1)C(=O)N[C@H](C(=O)N[C@@H](CCC(=O)O)C(=O)N[C@@H](Cc1c[nH]c2ccccc12)C(=O)N[C@@H](CC(C)C)C(=O)N[C@@H](CC(C)C)C(=O)N[C@@H](C)C(=O)N[C@@H](CCC(N)=O)C(=O)N[C@@H](CCCNC(=N)N)C(=O)NCC(=O)O)C(C)C` [Compound 130] (H-Y[Aib]EGTFISDYSIALDK[Aib]AQQK([AEEA-AEEA-γGlu-γGlu-C17 diacid])FVEWLLAQRG-OH), the solubility by setting is: (pH 7.4) no less than 15 mg/mL; (pH 7.4, aqueous buffer) no less than 30 mg/mL.

`CC[C@H](C)[C@H](NC(=O)[C@H](Cc1ccccc1)NC(=O)[C@@H](NC(=O)CNC(=O)[C@H](CCC(=O)O)NC(=O)C(C)(C)NC(=O)[C@H](Cc1ccc(O)cc1)NC)[C@@H](C)O)C(=O)N[C@@H](CO)C(=O)N[C@@H](CC(=O)O)C(=O)N[C@@H](Cc1ccc(O)cc1)C(=O)N[C@@H](CO)C(=O)N[C@H](C(=O)NC(C)(C)C(=O)N[C@@H](CC(C)C)C(=O)N[C@@H](CC(=O)O)C(=O)N[C@@H](CCCNC(=N)N)C(=O)NC(C)(C)C(=O)N[C@@H](C)C(=O)N[C@@H](CCC(N)=O)C(=O)NC(C)(C)C(=O)N[C@@H](CCCCNC(=O)COCCOCCNC(=O)COCCOCCNC(=O)CC[C@H](NC(=O)CC[C@H](NC(=O)CCCCCCCCCCCCCCCCC(=O)O)C(=O)O)C(=O)O)C(=O)N[C@@H](Cc1ccccc1)C(=O)N[C@H](C(=O)N[C@@H](CC(N)=O)C(=O)N[C@@H](Cc1c[nH]c2ccccc12)C(=O)N[C@@H](CC(C)C)C(=O)N[C@@H](CC(C)C)C(=O)N[C@@H](C)C(=O)N[C@@H](CCC(N)=O)C(=O)N[C@@H](CO)C(=O)N1CCC[C@H]1C(=O)N[C@@H](CO)C(=O)N[C@@H](CO)C(=O)NCC(=O)N[C@@H](C)C(=O)N1CCC[C@H]1C(=O)N1CCC[C@H]1C(=O)N1CCC[C@H]1C(=O)N[C@@H](CO)C(N)=O)C(C)C)[C@@H](C)CC` [Compound 90] (H-[NMeY][Aib]EGTFISDYSI[Aib]LDR[Aib]AQ[Aib]K([AEEA-AEEA-γGlu-γGlu-C18 diacid])FVNWLLAQSPSSGAPPPS-NH2): the solubility is no less than 60 mg/mL (pH 7.4, aqueous buffer, pH 7.4 Phosphate Buffer - Solubility, 200 mM Phosphate buffer pH 7.4) and no less than 15 mg/mL (pH 7.4, solubility in phosphate buffer at pH 7.4, 200 mM phosphate buffer pH 7.4).
